# Patent publication US12583868B2, “JAK inhibitors and methods for synthesizing and using thereof” (GALDERMA HOLDING SA, priority 2020, dated 2026)
# Values joined by “and” are separate entries in the source; they are usually repeats but may differ in a detail not shown here. Equal entries are not always repeated. Where two headings read alike, the source gives them in different places.
# How the values were obtained:
# [1] = system: IL-6 induced pSTAT3 in TF-1 cells; experiment: In vitro cellular pSTAT3 assay, IL-6 stimulated TF-1 cells; type: cell-based; conditions: Homo sapiens
# Description: . The flasks were incubated overnight at 37° C., 5% CO2 then seeded in 96 well plates (TPP) at 150000 cells/well in 25 μL. Cells were treated with 5 IL/well of serially diluted compounds in DMSO (final DMSO concentration of 0.1%) and incubated for 30 min at 37° C. IL-6 (6 IL/well, 100 ng/ml as a final concentration in Opti-MEM, Thermofisher, PHC0066) was added to the cell plates and followed by a 30-min incubation at 37° C. Next, cells were lysed by adding 12 μl/well of 4× supplemented lysis buffer, incubated at 4° C. for 30 min under agitation. The samples were processed for the pSTAT3 detection as described by the manufacturer (MSD) with 25 μl of non-diluted cell lysates tested. Compounds were tested in simplicates over 10 three-step dilutions in order to determine their IC50 values.
# IL6 = experiment: hWB assay, IL6; type: cell-based, h
# Chrom logD pH 7.4 = type: physicochemical
# SF logD = type: physicochemical
# [2] = Human skin ex vivo: flux through skin and dermis concentration (Franz cells); type: in vitro ADME; conditions: PG/H2O cream 1 mg/mL, human skin
# Kinetic aq sol = type: physicochemical
# [3] = Thermodynamic sol PG_H2O pH 6 2/8; type: physicochemical; conditions: amorphous material
# [4] = Protein binding analysis (RED), human plasma; type: in vitro ADME; conditions: 5 μM
# Description: (§1) The protein binding was assessed in plasma of Human, male balb-c mice, male Wistar Han rat, male Göttingen minipig by rapid equilibrium dialysis (RED) devices. After the plasma and buffer phosphate 50 mM pH7.4 were equilibrated at 37° C., the compound was added to plasma to reach a final concentration of 5 μM. An aliquot of plasma was withdrawn immediately. Equilibration under mild agitation was continued for 4 h. The plasma and buffer were sampled and samples were quenched with 4 volumes of acetonitrile and centrifuged. Supernatant was quantified in HPLC/MS/MS to calculate the recovery and the percentage of compound dissolved in the buffer (unbound) and bound to plasma proteins.
# [5] = Protein binding analysis (RED), rat plasma; type: in vitro ADME, male Wistar Han rat; conditions: 5 μM
# Description: as §1
# [6] = Protein binding analysis (RED), mouse plasma; type: in vitro ADME, male balb-c mice; conditions: 5 μM
# Description: as §1
# [7] = Protein binding analysis (RED), minipig plasma; type: in vitro ADME; conditions: male, Göttingen, pH 7.4, read-out: minipig FU
# Description: as §1
# [8] = Intrinsic clearance in hepatocytes, human; type: in vitro ADME; conditions: 2.5 μM
# Description: (§2) The intrinsic clearance was assessed in cryopreserved Hepatocytes obtained by Human livers donors of mix gender pooled together, male balb-c mouse, male Wistar Han rats and male Göttingen minipig, by looking at the parent compound disappearance. The incubations were performed using a final concentration of viable cells of 1 million/ml (viability above 70%) and test item of 2.5 μM. Incubations were followed up to 2 h. Aliquotes were withdrawn at different time points and reaction quenched with acetonitrile. After centrifugation the supernatant was analyzed by HPLC/MS to quantify the remaining amount of parent in comparison with time 0. The clearance was calculated by fitting the log of the percentage remaining with Graphpad Prism ver.7.
# [9] = Intrinsic clearance in hepatocytes, rat; type: in vitro ADME, male Wistar Han rats; conditions: 2.5 μM
# Description: as §2
# [10] = Intrinsic clearance in hepatocytes, mouse; type: in vitro ADME, male balb-c mouse; conditions: 2.5 μM
# Description: as §2
# [11] = Intrinsic clearance in hepatocytes, minipig; type: in vitro ADME, male Göttingen minipig; conditions: 2.5 μM
# Description: as §2
# [12] = In vivo pharmacokinetic analysis in rat (iv); design: species or system male Wistar Han rat; conditions: iv 1 mg/kg
# Description: (§3) One male Wistar Han rat. Compound was administered intravenously to fed animal at a target dose of 1 mg/kg, dose volume: 2 mL/kg, in DMSO/hydroxypropyl-beta-cyclodextrin 20% in phosphate buffer 60 mM pH 7 (5:95). Blood samples were collected at various time points. Blood samples were then assayed using a method based upon protein precipitation with acetonitrile followed by LC/MS/MS analysis. Non-compartmental methods were used for pharmacokinetic analysis of blood concentration versus time data
# [13] = In vivo pharmacokinetic analysis in minipig (iv); design: species or system male Göttingen minipigs; conditions: iv 1 mg/kg
# Description: as §3, with “Three” for “One”, “Göttingen minipigs.” for “Wistar Han rat.”, “animals” for “animal”, “volume 1” for “volume: 2”, “DMSO: hydroxypropyl-p-cyclodextrin” for “DMSO/hydroxypropyl-beta-cyclodextrin”, “data.” for “data”
# [14] = Systemic level in PD/IL6 mouse topical dose response; type: in vivo, BALB/c ByJ Rj mice; conditions: topical 10 mM
# Description: Skin samples were harvested 15 min.
# CYP2D6 = target: T1, CYP2D6 (Homo sapiens, UniProt P10635); experiment: CYP2D6 inhibition in human liver microsomes; type: in vitro ADME; conditions: dextromethorphan, CRL data
# T1 construct: Human pooled liver microsomes of mixed gender (mainly Caucasian); from tissue; host or cells: pooled human liver microsomes
# Description: After 5 min at 37° C. incubations were started with NADPH and prolonged for 10 min. The test compound was tested up to 30 μM keeping the final concentration of organic solvent was below 0.5%. The final concentration of microsomes was 0.1 mg/ml to ensure linearity during the time of the incubation. The reaction was quenched by adding 3 volume of acetonitrile. After centrifugation the supernatant was analyzed by HPLC/MS/MS for the formation of des-methyldextromethorphane selectively produced by CYP2D6 and 1′hydroxymidazolam or 6p-hydroxytestosterone, selectively produced by CYP3A. IC50 was calculated with Graphpad Prism v.7 comparing the amount of metabolite produced in presence of the test compound with that produced in absence of test item.
# 44 targets = type: binding
# Description: An in vitro pharmacology assay was conducted to assess the capability of the compounds to interact with different pharmacological targets when tested at 10 μM in different binding and enzyme/uptake assays. The included targets are indicative of potential effects in major organs and drug-drug interactions.
# Compound binding was calculated as a % inhibition of the binding of a radioactively labelled ligand specific for each target. […] […].
# T1 sequence (P10635 whole entry): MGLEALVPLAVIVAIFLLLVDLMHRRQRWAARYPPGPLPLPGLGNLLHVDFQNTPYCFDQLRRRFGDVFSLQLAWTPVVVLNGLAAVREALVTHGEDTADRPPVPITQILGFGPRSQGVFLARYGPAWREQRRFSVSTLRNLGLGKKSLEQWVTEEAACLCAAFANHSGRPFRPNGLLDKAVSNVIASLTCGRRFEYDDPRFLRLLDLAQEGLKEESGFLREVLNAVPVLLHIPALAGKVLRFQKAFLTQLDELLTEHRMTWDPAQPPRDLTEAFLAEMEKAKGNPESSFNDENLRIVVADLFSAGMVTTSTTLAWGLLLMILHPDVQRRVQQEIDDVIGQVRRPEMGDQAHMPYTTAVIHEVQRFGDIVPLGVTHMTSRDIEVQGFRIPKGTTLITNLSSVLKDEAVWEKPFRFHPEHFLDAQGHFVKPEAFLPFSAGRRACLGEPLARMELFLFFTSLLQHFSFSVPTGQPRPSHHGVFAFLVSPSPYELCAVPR
compound,measurement,setting,value
"N#CC[C@H](C1CCCC1)n1cc(-c2ncnc3[nH]ccc23)cn1 [Ruxolitinib, reference compound]",IC50,"[1]; TF-1, read-out: Cellular Assay: IC50 IL6",8 nM
same,IC50,"[1]; TF-1, read-out: Free IC50",200 nM
same,IC50,IL6,6900 nM
same,chromatographic logD,Chrom logD pH 7.4,1.5
same,logD,SF logD,2.3
same,measured flux 6-24 hr,[2],5.3 ng/cm^2/hr
same,Kinetic aq sol,Kinetic aq sol,232/ND (no cristalline microM
same,Thermodynamic sol PG_H2O pH 6 2/8,[3],1 mM and 0.3 mg/mL
same,hFU,[4],4%
same,rFU,[5],13%
same,mFU,[6],7.7%
same,"fraction unbound at 4 h, 5 μM",[7],0.25
same,Intr. Clear. h heps,[8],4.4 microL/min/10 6 cells
same,Intr. Clear. rheps,[9],300 microL/min/10 6 cells
same,Intr. Clear. mheps,[10],150 microL/min/10 6 cells
same,Intr. Clear. minipig heps,[11],141 microL/min/10 6 cells
same,iv PK rat: ER,[12],51%
same,clearance,"[12]; male, Wistar Han, whole blood, read-out: iv PK rat: Cl",40 mL/min/kg
same,iv PK minipig: ER,[13],68%
same,clearance,"[13]; male, Göttingen, whole blood, read-out: iv PK minipig: Cl",19 mL/min/kg
same,PD/IL6 mouse top DR 0.01-10 mM (PG/Acetone/Transcutol): Systemic level @10 mM - 2 hrs,[14],81 nM
same,IC50,CYP2D6,> 30000 nM
same,Safety panel (Cerep): 44 targets % inh @10 microM Nb of targets > 50% inh,44 targets,0/44
